Measurements taken from ChEMBL document CHEMBL4385627, “Rational approaches, design strategies, structure activity relationship and mechanistic insights for therapeutic coumarin hybrids” (Bioorg Med Chem, 2019).
≈ marks a conversion by molar mass, not a printed value. One block for each compound: values may come before it.

What was measured:
Trichomonas vaginalis = test: Trichomonacidal against metronidazole-susceptible Trichomonas vaginalis after 48 hrs by trypan blue exclusion assay; assay type: functional, organism-based
Lactobacillus jensenii = test: Inhibition of Lactobacillus jensenii ATCC 25258 assessed as reduction in number of cells by measuring turbidity after 24 hrs; assay type: organism-based; conditions: ATCC 25258, 24 h
Spermatozoa = test: Spermicidal activity against human spermatozoa shaken for 10 secs by phase contrast microscopy; assay type: functional, cell-based
HeLa = test: Cytotoxicity against human HeLa cells after 24 hrs by MTT assay; assay type: cell-based
A549 = test: Cytotoxicity against human A549 cells incubated for 24 hrs by MTT assay; assay type: functional, cell-based; conditions: A549, 24 h
Staphylococcus aureus [1] = test: Antimicrobial activity against Staphylococcus aureus incubated for 16 hrs by agar-well diffusion method; assay type: functional
Acetylcholinesterase = Acetylcholinesterase (Homo sapiens, UniProt P22303); test: Inhibition of human recombinant AchE using acetylthiocholine iodide as substrate preincubated for 5 mins followed by substrate addition and measured at 2 mins interval by Ellman's method
Urease = Urease (Canavalia ensiformis, UniProt P07374); test: Inhibition of jack bean urease incubated for 30 mins by indophenol method
[2] = Inhibition of bovine kidney ALR1 using sodium D-glucoronic acid as substrate preincubated for 5 mins followed by NADPH addition and measured after 10 mins by spectrophotometric analysis; set-up: species or system Bos taurus
[3] = Inhibition of calf ALR2 using DL-glyceraldehyde as substrate preincubated for 5 mins followed by NADPH addition and measured after 10 mins by spectrophotometric analysis; set-up: species or system Bos taurus
[4] = Inhibition of rat intestinal maltase-glucoamylase using p-nitrophenyl alpha-D-glucoside as substrate preincubated for 5 mins followed by substrate addition and measured after 30 mins by spectrophotometric analysis
Alpha glucosidase = Alpha glucosidase (Homo sapiens, UniProt O43451+P10253+P14410+Q2M2H8); test: Inhibition of alpha-glucosidase (unknown origin) using p-NPG as substrate preincubated for 5 mins followed by substrate addition and measured after 30 mins by spectrophotometric analysis; assay type: protein assay
A498 = test: Growth inhibition of human A498 cells at 10 uM after 48 hrs by SRB assay relative to control; assay type: functional; conditions: A498, 48 h, read-out: GI
Leishmania major [5] = test: Antileishmanial activity against Leishmania major at 100 uM incubated for 72 hrs by MTT assay relative to control; assay type: functional
Leishmania major [6] = test: Antileishmanial activity against Leishmania major at 0.1 uM incubated for 72 hrs by MTT assay relative to control; assay type: functional
Leishmania major [7] = test: Antileishmanial activity against Leishmania major at 1 uM incubated for 72 hrs by MTT assay relative to control; assay type: functional
Leishmania major [8] = test: Antileishmanial activity against Leishmania major at 10 uM incubated for 72 hrs by MTT assay relative to control; assay type: functional
[9] = Inhibition of calf intestinal alkaline phosphatase using p-nitrophenyl phosphate as substrate preincubated for 10 mins followed by substrate addition and measured after 30 mins by spectrometry based assay; set-up: species or system Bos taurus
MDA-MB-231 = test: Cytotoxicity against human MDA-MB-231 cells incubated for 24 hrs by MTT assay; assay type: functional, cell-based; conditions: MDA-MB-231, 24 h
[10] = target: Amyloid-beta precursor protein (Homo sapiens) (UniProt P05067); test: Inhibition of amyloid beta (1 to 40) (unknown origin) aggregation at 1 uM incubated for 1 hr by thioflavin T fluorescence spectroscopic method relative to control
Vero = test: Cytotoxicity against African green monkey Vero cells after 48 hrs by MTT assay; assay type: cell-based; conditions: Chlorocebus sabaeus
Rattus norvegicus [11] = test: Antiinflammatory activity in Wistar rat assessed as reduction in formalin-induced paw edema volume at 20 mg/kg, po administered 1 hr prior to formalin challenge and measured over 0 to 6 hrs post formalin challenge by plethysmography relative to control; assay type: functional
NCI-H157 [12] = test: Growth inhibition of human NCI-H157 cells at 1 uM incubated for 48 hrs by SRB assay relative to control; assay type: functional; conditions: NCI-H157, 48 h, read-out: GI
NCI-H157 [13] = test: Growth inhibition of human NCI-H157 cells at 100 uM incubated for 48 hrs by SRB assay relative to control; assay type: functional; conditions: NCI-H157, 48 h, read-out: GI
NCI-H157 [14] = test: Growth inhibition of human NCI-H157 cells at 0.1 uM incubated for 48 hrs by SRB assay relative to control; assay type: functional; conditions: NCI-H157, 48 h, read-out: GI
NCI-H157 [15] = test: Growth inhibition of human NCI-H157 cells at 10 uM incubated for 48 hrs by SRB assay relative to control; assay type: functional; conditions: NCI-H157, 48 h, read-out: GI
[16] = Inhibition of Saccharomyces cerevisiae alpha-glucosidase using p-nitrophenyl-alpha-D-glucopyranoside as substrate preincubated for 10 mins followed by substrate addition and measured after 30 mins by spectrophotometric analysis
HOP-92 = test: Growth inhibition of human HOP92 cells at 10 uM after 48 hrs by SRB assay relative to control; assay type: functional; conditions: HOP-92, 48 h, read-out: GI
[17] = Antioxidant activity assessed as superoxide anion radical scavenging activity by cyclic voltammetric analysis; assay type: functional
[18] = Growth inhibition of BHK21 cells at 1 uM incubated for 48 hrs by SRB assay relative to control; assay type: cell-based, Mesocricetus auratus, BHK-21; conditions: hamster, read-out: GI
[19] = Growth inhibition of BHK21 cells at 10 uM incubated for 48 hrs by SRB assay relative to control; assay type: cell-based, Mesocricetus auratus, BHK-21; conditions: hamster, read-out: GI
[20] = Growth inhibition of BHK21 cells at 0.1 uM incubated for 48 hrs by SRB assay relative to control; assay type: cell-based, Mesocricetus auratus, BHK-21; conditions: hamster, read-out: GI
[21] = Growth inhibition of BHK21 cells at 100 uM incubated for 48 hrs by SRB assay relative to control; assay type: cell-based, Mesocricetus auratus, BHK-21; conditions: hamster, read-out: GI
[22] = Antioxidant activity assessed as ABTS radical cation scavenging ability
Cholinesterase = Cholinesterase (Homo sapiens, UniProt P06276); test: Inhibition of human plasma BuChE using butyrylthiocholine iodide as substrate preincubated for 5 mins followed by substrate addition and measured at 2 mins interval by Ellman's method
Rattus norvegicus [23] = test: Antitumor activity against NMU challenged Sprague-Dawley rat assessed as tumor volume at 5 mg/kg, po administered once per day for 6 weeks via gavage followed by NMU post challenge for 2 weeks (reference value: 4.8 +/- 0.14 mm3); assay type: functional
MCF7 = test: Growth inhibition of human MCF7 cells by SRB assay; assay type: functional
MDA-MB-435 = test: Growth inhibition of human MDA-MB-435 cells by SRB assay; assay type: functional
Aspergillus niger = test: Antifungal activity against Aspergillus niger MTCC 282 by agar dilution method; assay type: functional
Candida albicans = test: Antifungal activity against Candida albicans MTCC 227 by agar dilution method; assay type: functional
Pseudomonas aeruginosa = test: Antibacterial activity against Pseudomonas aeruginosa MTCC 1688 by agar dilution method; assay type: functional
Aspergillus clavatus = test: Antifungal activity against Aspergillus clavatus MTCC 1323 by agar dilution method; assay type: functional
Escherichia coli = test: Antibacterial activity against Escherichia coli MTCC 443 by agar dilution method; assay type: functional
Staphylococcus aureus [24] = test: Antibacterial activity against Staphylococcus aureus MTCC 96 by agar dilution method; assay type: functional

Chain of Acetylcholinesterase (P22303 whole entry): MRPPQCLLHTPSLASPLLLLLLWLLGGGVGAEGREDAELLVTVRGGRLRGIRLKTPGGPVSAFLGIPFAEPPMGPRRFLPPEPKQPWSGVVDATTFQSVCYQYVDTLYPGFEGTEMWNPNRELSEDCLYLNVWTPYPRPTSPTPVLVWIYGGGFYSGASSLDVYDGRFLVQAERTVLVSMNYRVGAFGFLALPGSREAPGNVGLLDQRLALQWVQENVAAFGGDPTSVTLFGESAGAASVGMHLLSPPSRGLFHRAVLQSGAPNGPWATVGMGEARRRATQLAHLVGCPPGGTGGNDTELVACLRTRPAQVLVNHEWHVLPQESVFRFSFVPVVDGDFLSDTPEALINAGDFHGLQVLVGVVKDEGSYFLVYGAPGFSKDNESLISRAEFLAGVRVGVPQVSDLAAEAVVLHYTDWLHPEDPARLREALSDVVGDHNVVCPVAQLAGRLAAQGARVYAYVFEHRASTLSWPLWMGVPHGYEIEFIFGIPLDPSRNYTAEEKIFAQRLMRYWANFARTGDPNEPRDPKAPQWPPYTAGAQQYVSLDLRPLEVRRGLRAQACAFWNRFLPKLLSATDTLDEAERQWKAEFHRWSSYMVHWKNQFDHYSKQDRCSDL
Chain of Urease (P07374 whole entry): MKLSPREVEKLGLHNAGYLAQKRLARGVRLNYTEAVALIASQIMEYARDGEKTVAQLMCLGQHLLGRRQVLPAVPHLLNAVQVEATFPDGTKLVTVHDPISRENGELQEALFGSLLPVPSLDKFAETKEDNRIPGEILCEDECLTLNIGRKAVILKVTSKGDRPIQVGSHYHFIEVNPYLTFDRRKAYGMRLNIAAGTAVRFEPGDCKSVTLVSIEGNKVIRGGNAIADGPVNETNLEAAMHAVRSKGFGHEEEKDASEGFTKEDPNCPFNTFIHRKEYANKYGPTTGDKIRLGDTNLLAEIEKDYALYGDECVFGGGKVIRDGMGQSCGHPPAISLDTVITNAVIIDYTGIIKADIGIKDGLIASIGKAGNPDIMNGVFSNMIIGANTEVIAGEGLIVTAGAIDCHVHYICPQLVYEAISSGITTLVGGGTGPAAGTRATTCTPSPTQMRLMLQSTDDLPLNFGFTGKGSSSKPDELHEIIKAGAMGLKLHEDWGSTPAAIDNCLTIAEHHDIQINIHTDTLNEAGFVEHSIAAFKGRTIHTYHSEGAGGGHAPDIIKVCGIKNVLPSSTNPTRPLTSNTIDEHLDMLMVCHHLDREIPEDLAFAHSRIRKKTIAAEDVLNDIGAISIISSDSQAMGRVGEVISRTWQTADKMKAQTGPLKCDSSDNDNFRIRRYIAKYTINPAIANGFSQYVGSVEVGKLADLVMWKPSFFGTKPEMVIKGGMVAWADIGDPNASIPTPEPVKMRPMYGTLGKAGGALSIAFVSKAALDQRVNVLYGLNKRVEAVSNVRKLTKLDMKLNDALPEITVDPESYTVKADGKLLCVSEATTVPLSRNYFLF
Chain of Cholinesterase (P06276 whole entry): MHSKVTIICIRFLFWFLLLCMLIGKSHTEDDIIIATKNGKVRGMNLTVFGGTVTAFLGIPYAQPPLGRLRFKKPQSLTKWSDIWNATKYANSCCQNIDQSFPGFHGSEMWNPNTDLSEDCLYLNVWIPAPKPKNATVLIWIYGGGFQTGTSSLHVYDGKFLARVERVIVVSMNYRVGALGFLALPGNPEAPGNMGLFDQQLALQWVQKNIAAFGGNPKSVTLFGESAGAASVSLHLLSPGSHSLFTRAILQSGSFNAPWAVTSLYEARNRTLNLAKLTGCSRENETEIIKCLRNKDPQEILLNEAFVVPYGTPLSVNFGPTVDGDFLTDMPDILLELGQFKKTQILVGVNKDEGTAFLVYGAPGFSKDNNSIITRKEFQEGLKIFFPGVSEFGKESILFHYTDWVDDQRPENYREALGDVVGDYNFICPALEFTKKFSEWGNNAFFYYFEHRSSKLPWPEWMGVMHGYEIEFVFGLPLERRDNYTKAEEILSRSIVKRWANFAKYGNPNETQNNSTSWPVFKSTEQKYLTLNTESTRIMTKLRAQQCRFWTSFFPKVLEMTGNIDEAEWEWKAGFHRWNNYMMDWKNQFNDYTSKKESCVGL
Chain of Amyloid-beta precursor protein (Homo sapiens) (P05067 whole entry): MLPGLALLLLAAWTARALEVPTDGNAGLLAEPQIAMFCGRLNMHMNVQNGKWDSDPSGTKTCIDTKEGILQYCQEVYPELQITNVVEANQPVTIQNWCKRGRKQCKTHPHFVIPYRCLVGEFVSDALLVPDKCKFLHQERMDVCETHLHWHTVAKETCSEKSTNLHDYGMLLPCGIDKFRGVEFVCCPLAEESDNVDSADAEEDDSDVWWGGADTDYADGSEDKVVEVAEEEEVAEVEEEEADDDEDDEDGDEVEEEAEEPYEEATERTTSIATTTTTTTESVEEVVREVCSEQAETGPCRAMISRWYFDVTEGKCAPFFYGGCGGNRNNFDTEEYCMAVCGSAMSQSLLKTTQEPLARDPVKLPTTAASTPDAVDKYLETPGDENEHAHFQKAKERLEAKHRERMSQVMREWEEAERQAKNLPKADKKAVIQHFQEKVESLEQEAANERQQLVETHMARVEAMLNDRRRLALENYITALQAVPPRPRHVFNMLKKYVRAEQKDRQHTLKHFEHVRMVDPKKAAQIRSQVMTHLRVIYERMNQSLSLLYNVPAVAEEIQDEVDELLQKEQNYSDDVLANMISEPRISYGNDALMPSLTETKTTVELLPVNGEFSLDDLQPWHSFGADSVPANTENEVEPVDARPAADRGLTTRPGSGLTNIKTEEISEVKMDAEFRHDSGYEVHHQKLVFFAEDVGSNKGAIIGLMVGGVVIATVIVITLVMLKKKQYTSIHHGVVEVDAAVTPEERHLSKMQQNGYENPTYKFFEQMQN

- IC50 (Lactobacillus jensenii): > 1000 µg/mL
Compound: O=C(c1ccc(O)cc1)C(c1c(O)c2ccccc2oc1=O)N1CCCCC1 (stereo not given)
- IC50 (Trichomonas vaginalis): 29400 nM
- IC50 (Spermatozoa): 500000 nM
- IC50 (HeLa): 234 µg/mL (≈ 617 µM)

Compound: COc1ccc(-c2cc(-c3cc4ccccc4oc3=O)nc(Cc3ccc(F)cc3)n2)cc1
- IC50 (A549): 16100 nM

Compound: O=C(O)c1cn(C2CC2)c2cc(N3CCNCC3)c(F)cc2c1=O [CIPROFLOXACIN]
- MIC (Staphylococcus aureus [1]): 10 µg/mL (≈ 30.2 µM)

Compound: O=C(Cc1cc(=O)oc2cc(O)ccc12)NCCCNCCNCCCNc1c2c(nc3ccccc13)CCCC2
- IC50 (Acetylcholinesterase): 38 nM

Compound: NC(=S)N1N=C(c2cc3ccccc3oc2=O)CC1c1ccccc1 (stereo not given)
- IC50 (Urease): 358 nM

- IC50 [2]: 1710 nM
- IC50 [3]: 110 nM
Compound: C/C(=N\Nc1nc(-c2cc3ccccc3oc2=O)cs1)c1ccc(Br)cc1

- IC50 [4]: 70 nM
- IC50 (Alpha glucosidase): 110 nM
Compound: Cc1ccc(N2C(=O)/C(=C/c3ccc(F)cc3)S/C2=N\NC(=O)c2cc3ccccc3oc2=O)cc1

Compound: Cc1cc(=O)oc2cc(Oc3nc(-c4ccc(B(O)O)cc4)cn4c(-c5ccc(B(O)O)cc5)cnc34)ccc12
- inhibition of growth at 10 µM (A498): 90.1%

Compound: C[C@@H]1[C@H](O)[C@@H](C)/C=C/C=C/C=C/C=C/C=C/C=C/C=C/[C@H](O[C@@H]2O[C@H](C)[C@@H](O)[C@H](N)[C@@H]2O)C[C@@H]2O[C@](O)(C[C@@H](O)C[C@@H](O)[C@H](O)CC[C@@H](O)C[C@@H](O)CC(=O)O[C@H]1C)C[C@H](O)[C@H]2C(=O)O [AMPHOTERICIN B]
- inhibition at 100 µM (Leishmania major [5]): 79.8%
- inhibition at 0.1 µM (Leishmania major [6]): 69.9%
- inhibition at 1 µM (Leishmania major [7]): 74.8%
- inhibition at 10 µM (Leishmania major [8]): 76.3%

- IC50 [9]: 1380 nM
Compound: Cc1ccc(-n2c(-c3cc4ccccc4oc3=O)cs/c2=N/NC(=O)c2cc3ccccc3oc2=O)c(C)c1

- IC50 [4]: 380 nM
Compound: COc1ccccc1N1C(=O)/C(=C/c2ccc(F)cc2)S/C1=N\NC(=O)c1cc2ccccc2oc1=O

Compound: O=c1oc2ccccc2cc1-c1cc(-c2ccc(Cl)cc2)nc(Cc2ccc(F)cc2)n1
- IC50 (MDA-MB-231): 16500 nM
- IC50 (A549): 2150 nM

- inhibition [10]: 82%
Compound: O=C(Cc1cc(=O)oc2cc(O)ccc12)NCCCCCCCCNc1c2c(nc3ccccc13)CCCC2

Compound: O=Cc1c(-c2cc3cc(Br)ccc3oc2=O)[nH]c2ccccc12
- IC50 (Vero): 100000 nM

Compound: O=c1oc2ccc(Cl)cc2cc1-c1nc2ccccc2[nH]1
- inhibition in vivo at 20 mg/kg (Rattus norvegicus [11]): 46.8%

- IC50 [2]: 34700 nM
- IC50 [3]: 160 nM
Compound: C/C(=N\Nc1nc(-c2cc3ccccc3oc2=O)cs1)c1ccccc1Br

Compound: O=c1oc2ccc(Br)cc2cc1-c1nc2ccccc2[nH]1
- inhibition in vivo at 20 mg/kg (Rattus norvegicus [11]): 45.5%

- MIC (Staphylococcus aureus [1]): 2.5 µg/mL (≈ 4.89 µM)
Compound: CC(C)(C)NC(=O)c1c(-c2ccccc2)nc(SCc2cc(=O)oc3ccc4ccccc4c23)[nH]c1=O

Compound: Cc1ccc(-n2c(-c3cc4ccccc4oc3=O)cs/c2=N/NC(=O)c2cc3ccccc3oc2=O)cc1C
- inhibition of growth at 1 µM (NCI-H157 [12]): 53.8%
- inhibition of growth at 100 µM (NCI-H157 [13]): 65%
- inhibition of growth at 0.1 µM (NCI-H157 [14]): 45.5%
- inhibition of growth at 10 µM (NCI-H157 [15]): 57.3%

- IC50 [16]: 8230 nM
Compound: O=C(N/N=C/c1cc(Cl)ccc1O)c1nc(-c2cc3ccccc3oc2=O)cs1

Compound: Cc1cc(=O)oc2cc(Oc3nc(-c4ccc(B(O)O)s4)cn4c(-c5ccc(B(O)O)s5)cnc34)ccc12
- inhibition of growth at 10 µM (HOP-92): 92.3%

- IC50 [17]: 64000 nM
Compound: O=C(OCc1cc(=O)oc2c(O)c(O)ccc12)c1cc(O)c(O)c(O)c1

Compound: Cc1cc(C)cc(-n2c(-c3cc4ccccc4oc3=O)cs/c2=N/NC(=O)c2cc3ccccc3oc2=O)c1
- inhibition at 48 h, 1 µM [18]: 59.4%
- inhibition at 48 h, 10 µM [19]: 64.2%
- inhibition at 48 h, 0.1 µM [20]: 55.5%
- inhibition at 48 h, 100 µM [21]: 66.8%

- IC50 [22]: 18600 nM
Compound: CCOC(=O)C(C)(C)Oc1ccc(C(=O)c2cc3cc([N+](=O)[O-])ccc3oc2=O)cc1

Compound: Nc1cc(Cl)ccc1/C(=N/Nc1nc(-c2cc3ccccc3oc2=O)cs1)c1ccccc1
- IC50 [3]: 459 nM

Compound: Cc1cccc(-n2c(-c3cc4ccccc4oc3=O)cs/c2=N/NC(=O)c2cc3ccccc3oc2=O)c1C
- inhibition at 100 µM (Leishmania major [5]): 70.4%
- inhibition at 0.1 µM (Leishmania major [6]): 53.9%
- inhibition at 1 µM (Leishmania major [7]): 60.7%
- inhibition at 10 µM (Leishmania major [8]): 66.2%

Compound: O=C(Cc1cc(=O)oc2cc(O)ccc12)NCCCCCCCNc1c2c(nc3ccccc13)CCCC2
- IC50 (Cholinesterase): 63 to 63.5 nM

- IC50 [2]: 2940 nM
- IC50 [3]: 120 nM
Compound: C/C(=N\Nc1nc(-c2cc3ccccc3oc2=O)cs1)c1ccccc1

- GI50 (MCF7): < 10 µg/mL
- GI50 (MDA-MB-435): 75.3 µg/mL (≈ 187 µM)
Compound: O=C(/C=C/c1ccc(OCCN2CCCCC2)cc1)c1cc2ccccc2oc1=O
- Activity (Rattus norvegicus [23]): 3.3 mm3

- IC50 [16]: 6240 nM
Compound: O=C(N/N=C/c1cc(Cl)cc(Cl)c1O)c1nc(-c2cc3ccccc3oc2=O)cs1

- IC50 [22]: 8510 nM
Compound: CCOC(=O)C(C)(C)Oc1ccc(C(=O)c2cc3cc(C)ccc3oc2=O)cc1

Compound: O=C(Nc1nc2ccccc2[nH]1)c1cc2ccccc2oc1=O
- inhibition in vivo at 20 mg/kg (Rattus norvegicus [11]): 42.9%

- MIC (Aspergillus niger): 100 µg/mL (≈ 268 µM)
- MIC (Candida albicans): 100 µg/mL (≈ 268 µM)
- MIC (Pseudomonas aeruginosa): 100 µg/mL (≈ 268 µM)
- MIC (Aspergillus clavatus): 100 µg/mL (≈ 268 µM)
- MIC (Escherichia coli): 50 µg/mL (≈ 134 µM)
- MIC (Staphylococcus aureus [24]): 50 µg/mL (≈ 134 µM)
Compound: C/C(=N\NC(=S)Nc1ccc(F)cc1F)c1cc2ccccc2oc1=O
